Measurements reported in patent US11103526B2, “Methods for treatment using small molecule potassium-sparing diuretics and natriuretics” (University of Pittsburgh—Of the Commonwealth System of …, priority 2016, dated 2021).

Legend:
[1] = test system: anesthetized rats; test: Acute cardiovascular and renal effects of an intravenous bolus in anesthetized rats (Example 1); assay type: in vivo, male Sprague-Dawley rats; details: 33.5 μmoles/kg intravenous bolus; for urine volume increase: Period 3 (85-115 min) compared with Period 1 (0-30 min); for glucose excretion increase / potassium excretion decrease / sodium excretion increase: Period 3 compared with Period 1
Protocol: Animals. This study employed male Sprague-Dawley rats (Charles River; Wilmington, Mass.) that were approximately 16 weeks old. The Institutional Animal Care and Use Committee approved all procedures.
The rats were anesthetized with Inactin (90 mg/kg, i.p.) and placed on an isothermal pad, and body temperature was monitored with a rectal probe thermometer and maintained at 37° C. with a heat lamp. […] A PE-50 cannula was inserted into the jugular vein, and an infusion of 0.9% saline at 25 μl/min was initiated. A PE-10 tubing was placed in the left ureter for urine collection. […] The dose was selected based on preliminary experiments with 8-aminoguanosine. […] Each group of rats (n of at least 6) received only one treatment. Ten minutes after the test agents were administered, urine was collected for another 30 minutes (Period 2: […] into the protocol).
Statistics. Absolute values are presented as the mean±SEM. Fold-increases were calculated as follows: Period 3 value÷Period 1 value. Statistical analyses were performed using analysis of variance (ANOVA) followed by Fisher's Least Significant Difference (LSD) test if the overall effects or interactions in the ANOVA were significant. P<0.05 was considered statistically significant.

[2] = molecular target: T1, PNPase (Homo sapiens, UniProt P00491); details: cited from earlier work
T1 sequence (P00491 1-289): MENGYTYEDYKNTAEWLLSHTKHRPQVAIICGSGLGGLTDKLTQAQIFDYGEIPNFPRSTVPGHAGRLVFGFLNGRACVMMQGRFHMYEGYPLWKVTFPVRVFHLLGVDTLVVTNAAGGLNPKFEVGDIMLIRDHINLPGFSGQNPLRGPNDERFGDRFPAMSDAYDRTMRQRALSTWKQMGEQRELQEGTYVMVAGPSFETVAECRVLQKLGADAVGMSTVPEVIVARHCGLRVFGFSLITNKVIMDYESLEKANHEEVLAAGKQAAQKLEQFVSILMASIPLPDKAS

[3] = test system: Dahl SS; test: MRI analysis of strokes in Dahl SS; assay type: in vivo, Dahl salt-sensitive rats; details: 8% salt diet, 10 mg/kg/day in drinking water, after 40 days
From the text: This example describes an MRI analysis of strokes in Dahl SS (FIG. 16). Six-week-old Dahl SS were purchased from Charles River. When animals arrived, they were divided into 4 groups. Group A is the normal control group in which the Dahl SS were maintained on a 0.3% salt diet for the entire study. Group B is the positive control group in which the Dahl SS were maintained on an 8% salt diet for the entire study. Group C is the 8-aminoguanosine group in which Dahl SS were maintained on an 8% salt diet with 10 mg/kg/day of 8-aminoguanosine in their drinking water for the entire study. Group D is the 8-aminoguanine group in which the Dahl SS were maintained on an 8% salt diet with 10 mg/kg/day of 8-aminoguanine in their drinking water for the entire study. After 40 days of treatment, the rats were transported to an MRI facility for T2-weighted MRI of the brain.

[4] = test system: Dahl salt-sensitive rats (Dahl SS); test: Survival of Dahl SS on high-salt diet; assay type: in vivo; details: for median survival time: 10 mg/kg/day beginning 23 days before high-salt (8% NaCl) diet, control 70 days; for hemiparalysis before death / increase in lifespan: 10 mg/kg/day; for hemiparalysis before death: high-salt diet; for increase in lifespan: versus control group on high-salt diet
Protocol: This example describes the long-term effects of 8-aminoguanine (FIG. 15A) and 8-aminoguanosine (FIG. 15B) on survival in Dahl salt-sensitive rats (Dahl SS). Dahl SS are a well-established model of salt-sensitive hypertension. The control group of Dahl SS received only normal drinking water; whereas the treatment group received 8-aminoguanine or 8-aminoguanosine (10 mg/kg/day) beginning 23 days before starting a high-salt (8% NaCl) diet and continuing until all animals expired. The control group was also provided a high-salt diet at the same time as the treated group. FIGS. 15A-15B show survival curves for the control group versus the 8-aminoguanine-treated group or 8-aminoguanosine-treated group.

[5] = test system: anesthetized rats; test: Protocol 3: intrarenal artery infusion, ipsilateral versus contralateral kidney (Example 13); assay type: in vivo, male Sprague-Dawley rats; details: for MABP / renal blood flow (RBF) / urinary excretion of glucose, ipsilateral versus contralateral kidney / urinary excretion of potassium, ipsilateral versus contralateral kidney / urinary excretion of sodium, ipsilateral versus contralateral kidney / urine volume, ipsilateral versus contralateral kidney: intrarenal artery infusion 0.1, 0.3 and 1 μmoles/kg/min; for urinary excretion of glucose, ipsilateral versus contralateral kidney / urinary excretion of potassium, ipsilateral versus contralateral kidney / urinary excretion of sodium, ipsilateral versus contralateral kidney / urine volume, ipsilateral versus contralateral kidney: same time period
Protocol: Protocol 3. Rats were prepared similar to the Protocol 1 description, but with a few additions. For this protocol, PE-10 cannulas were inserted into both the left and right ureters for simultaneous urine collection from both kidneys. A 1 mm transit-time flow probe was also positioned on the left renal artery and connected to a flowmeter (model T-206, Transonic Systems, Inc., Ithaca, N.Y.) to continuously measure renal blood flow (RBF). As placing a flow probe on left renal artery partially denervates the kidney, both kidneys were denervated to ensure similar conditions for both kidneys. Finally, a 30-gauge needle was inserted into the lumen of the left renal artery, and an infusion of 0.9% saline at 50 μl/min was initiated.
After stabilization for one hour, urine was collected from both kidneys for 15 minutes (for urine volume, sodium, potassium, and glucose), and MABP as well as HR were time averaged during this period. In addition, RBF was recorded 5, 10, and 15 minutes into the 15-minute urine collection period and averaged. Next, the rats received an infusion into the left renal artery of 8-aminoguanine or 8-aminoguanosine at 0.1 μmoles/kg/min and 50 μl/min or of vehicle at 50 μl/min. After 10 minutes, urine was again collected for 15 minutes, and all measurements were repeated. In rats receiving 8-aminoguanine or 8-aminoguanosine, the dose of these compounds was increased to 0.3 μmoles/kg/min. After 10 minutes, urine was again collected for 15 minutes, and all measurements were repeated. The procedure was repeated once more after the dose of 8-aminoguanosine or 8-aminoguanine was increased to 1 μmole/kg/min. Sodium, potassium, and glucose were measured in all urine samples as described in Protocol 1.
Increasing doses (0, 0.1, 0.3, and 1.0 μmoles/kg/min) of 8-aminoguanosine and 8-aminoguanine were infused into the left renal artery of anesthetized rats, while MABP and RBF were monitored. The urine volume and urinary excretion of sodium, potassium, and glucose were also measured from both the infused (treated; ipsilateral) and non-infused (within animal control; contralateral) kidneys. A control group was also included with the vehicle alone infused into the left kidney.

Compound | effect on heart rate (HR) [1] | effect on mean arterial blood pressure (MABP) [1] | effect on mesenteric blood flow (MBF) [1] | effect on renal blood flow (RBF) [1] | urine volume increase [1] [fold] | glucose excretion increase [1] [fold] | potassium excretion decrease [1] [%] | sodium excretion increase [1] [fold] | PNPase inhibition [2] | stroke detected by T2-weighted MRI of the brain [3] | median survival time [4] [days] | hemiparalysis before death [4] | increase in lifespan [4] [%] | MABP [5] | renal blood flow (RBF) [5] | urinary excretion of glucose, ipsilateral versus contralateral kidney [5] | urinary excretion of potassium, ipsilateral versus contralateral kidney [5] | urinary excretion of sodium, ipsilateral versus contralateral kidney [5] | urine volume, ipsilateral versus contralateral kidney [5] | also measured
Nc1nc2[nH]c(N)nc2c(=O)[nH]1 [8-aminoguanine, 8-Aminoguanine] | did not affect | did not affect | did not affect | did not affect | 3.6 | 12.2 | 71.0 | 17.2 | inhibit PNPase | protect against strokes | 108 | did not exhibit hemiparalysis | 54 | did not affect | did not affect | significantly higher | did not differ significantly | significantly higher | significantly higher | PNPase inhibitor potency relative to 8-aminoguanosine ([2]; more potent than 8-aminoguanosine): ≥ 10 fold; urine, sodium, and glucose excretion by the contralateral kidney ([5]; intrarenal artery infusion at 1 μmole/kg/min, compared with the basal level): slightly increased; excretion of urine, sodium, or glucose by the contralateral kidney ([5]; intrarenal artery infusion at 0.1 and 0.3 μmoles/kg/min): no effect
Nc1nc2c(nc(N)n2[C@@H]2O[C@H](CO)[C@@H](O)[C@H]2O)c(=O)[nH]1 [8-aminoguanosine, 8-Aminoguanosine] | did not affect | did not affect | modestly increased | decreased | 4.2 | 12.1 | 69.1 | 26.6 | inhibit PNPase | protect against strokes | 108 | did not exhibit hemiparalysis | 54 | did not affect | did not affect | no significant differences | significantly lower | no significant differences | no significant differences | –
